Like-named read-outs stand apart in the source and are kept apart here.
Key:
[1] = target: T1, BSA (Bos taurus, UniProt P02769); type: in vitro ADME, bovine; details: for Effect on the plasma protein binding of metoprolol: BSA, metoprolol 0.5, 1 and 2 μg mL^−1, statistical results (p > 0.05); for fraction unbound at 60 min, 0.5 μg mL^−1 / fraction unbound at 60 min, 1 μg mL^−1 / fraction unbound at 60 min, 2 μg mL^−1: bovine, BSA solution
[2] = Nonspecific binding; type: in vitro ADME; details: concentration recovered after ultrafiltration
[3] = target: T1, BSA; test: Plasma protein binding of metoprolol in BSA by ultrafiltration and UPLC; type: in vitro ADME, bovine; details: for C f: total free concentration in filtrate
[4] = test system: plasma protein; details: in humans; cited from earlier work

T1 sequence (P02769 25-607): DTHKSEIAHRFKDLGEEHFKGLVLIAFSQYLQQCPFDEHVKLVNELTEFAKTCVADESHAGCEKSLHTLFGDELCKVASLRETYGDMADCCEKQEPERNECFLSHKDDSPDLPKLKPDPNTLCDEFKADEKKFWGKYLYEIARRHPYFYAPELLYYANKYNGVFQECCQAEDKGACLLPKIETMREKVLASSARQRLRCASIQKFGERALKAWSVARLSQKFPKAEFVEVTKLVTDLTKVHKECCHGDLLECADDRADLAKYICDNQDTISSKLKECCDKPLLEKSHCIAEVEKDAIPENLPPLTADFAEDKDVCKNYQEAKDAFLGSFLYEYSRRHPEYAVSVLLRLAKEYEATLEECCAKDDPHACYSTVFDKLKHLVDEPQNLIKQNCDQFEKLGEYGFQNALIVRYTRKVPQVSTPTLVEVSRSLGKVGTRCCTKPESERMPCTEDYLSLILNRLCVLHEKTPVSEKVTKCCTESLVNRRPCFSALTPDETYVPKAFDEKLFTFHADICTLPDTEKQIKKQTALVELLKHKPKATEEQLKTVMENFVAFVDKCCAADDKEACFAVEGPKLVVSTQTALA

SMILES: C=C1CCC[C@]2(C)C[C@]3(O)OC(=O)C(C)=C3C[C@@H]12 [Atractylenolide III, atractylenolide III]
- Effect on the plasma protein binding of metoprolol [1]: unlikely to affect

SMILES: O=C(O)/C=C/c1ccccc1 [Cinnamic acid, cinnamic acid]
- Effect on the plasma protein binding of metoprolol [1]: unlikely to affect

SMILES: O=C1C[C@@H](c2ccc(O[C@@H]3O[C@H](CO)[C@@H](O)[C@H](O)[C@H]3O)cc2)Oc2cc(O)ccc21 [Liquiritin, liquiritin]
- Effect on the plasma protein binding of metoprolol [1]: unlikely to affect

SMILES: CC1(C)[C@@H](O[C@H]2O[C@H](C(=O)O)[C@@H](O)[C@H](O)[C@H]2O[C@@H]2O[C@H](C(=O)O)[C@@H](O)[C@H](O)[C@H]2O)CC[C@]2(C)[C@H]3C(=O)C=C4[C@@H]5C[C@@](C)(C(=O)O)CC[C@]5(C)CC[C@@]4(C)[C@]3(C)CC[C@@H]12 [Glycyrrhizic acid, glycyrrhizic acid]
- Effect on the plasma protein binding of metoprolol [1]: unlikely to affect

SMILES: COCCc1ccc(OCC(O)CNC(C)C)cc1 (centres unmarked) [Metoprolol]
- C post ([2]; added 0.5 μg mL^−1): 0.40 ± 0.02 µg/mL
- C post ([2]; added 1.0 μg mL^−1): 0.78 ± 0.03 µg/mL
- C post ([2]; added 2.0 μg mL^−1): 1.55 ± 0.05 µg/mL
- fraction unbound at 60 min, 0.5 μg mL^−1 ([3]; bovine, BSA solution): 0.718
- fraction unbound at 60 min, 1 μg mL^−1 ([3]; bovine, BSA solution): 0.703
- fraction unbound at 60 min, 2 μg mL^−1 ([3]; bovine, BSA solution): 0.716
- C f ([3]; metoprolol 0.5 μg mL^−1 alone): 0.36 ± 0.01 µg/mL
- C f ([3]; metoprolol 1 μg mL^−1 alone): 0.70 ± 0.02 µg/mL
- C f ([3]; metoprolol 2 μg mL^−1 alone): 1.45 ± 0.03 µg/mL
- fraction unbound at 60 min, 0.5 μg mL^−1 ([1]; Plasma protein binding (with cinnamic acid), metoprolol 0.5 μg mL^−1 plus cinnamic acid 1 μg mL^−1, BSA): 0.741
- fraction unbound at 60 min, 1 μg mL^−1 ([1]; Plasma protein binding (with cinnamic acid), metoprolol 1 μg mL^−1 plus cinnamic acid 1 μg mL^−1, BSA): 0.693
- fraction unbound at 60 min, 2 μg mL^−1 ([1]; Plasma protein binding (with cinnamic acid), metoprolol 2 μg mL^−1 plus cinnamic acid 1 μg mL^−1, BSA): 0.716
- fraction unbound at 60 min, 0.5 μg mL^−1 ([1]; Plasma protein binding (with glycyrrhizic acid), metoprolol 0.5 μg mL^−1 plus glycyrrhizic acid 2 μg mL^−1, BSA): 0.721
- fraction unbound at 60 min, 1 μg mL^−1 ([1]; Plasma protein binding (with glycyrrhizic acid), metoprolol 1 μg mL^−1 plus glycyrrhizic acid 2 μg mL^−1, BSA): 0.717
- fraction unbound at 60 min, 2 μg mL^−1 ([1]; Plasma protein binding (with glycyrrhizic acid), metoprolol 2 μg mL^−1 plus glycyrrhizic acid 2 μg mL^−1, BSA): 0.704
- fraction unbound at 60 min, 0.5 μg mL^−1 ([1]; Plasma protein binding (with liquiritin), metoprolol 0.5 μg mL^−1 plus liquiritin 2 μg mL^−1, BSA): 0.74
- fraction unbound at 60 min, 1 μg mL^−1 ([1]; Plasma protein binding (with liquiritin), metoprolol 1 μg mL^−1 plus liquiritin 2 μg mL^−1, BSA): 0.708
- fraction unbound at 60 min, 2 μg mL^−1 ([1]; Plasma protein binding (with liquiritin), metoprolol 2 μg mL^−1 plus liquiritin 2 μg mL^−1, BSA): 0.701
- C free ([1]; metoprolol 0.5 μg mL^−1 plus atractylenolide III (0.1 μg mL^−1)): 0.37 ± 0.02 µg/mL
- C f ([1]; metoprolol 0.5 μg mL^−1 plus cinnamic acid 1 μg mL^−1): 0.37 ± 0.01 µg/mL
- C free ([1]; metoprolol 0.5 μg mL^−1 plus glycyrrhizic acid 2 μg mL^−1): 0.35 ± 0.02 µg/mL
- C free ([1]; metoprolol 0.5 μg mL^−1 plus liquiritin 2 μg mL^−1): 0.37 ± 0.01 µg/mL
- C free ([1]; metoprolol 1 μg mL^−1 plus atractylenolide III (0.1 μg mL^−1)): 0.70 ± 0.02 µg/mL
- C f ([1]; metoprolol 1 μg mL^−1 plus cinnamic acid 1 μg mL^−1): 0.69 ± 0.02 µg/mL
- C free ([1]; metoprolol 1 μg mL^−1 plus glycyrrhizic acid 2 μg mL^−1): 0.72 ± 0.02 µg/mL
- C free ([1]; metoprolol 1 μg mL^−1 plus liquiritin 2 μg mL^−1): 0.71 ± 0.03 µg/mL
- C free ([1]; metoprolol 2 μg mL^−1 plus atractylenolide III (0.1 μg mL^−1)): 1.40 ± 0.08 µg/mL
- C f ([1]; metoprolol 2 μg mL^−1 plus cinnamic acid 1 μg mL^−1): 1.44 ± 0.03 µg/mL
- C free ([1]; metoprolol 2 μg mL^−1 plus glycyrrhizic acid 2 μg mL^−1): 1.40 ± 0.03 µg/mL
- C free ([1]; metoprolol 2 μg mL^−1 plus liquiritin 2 μg mL^−1): 1.39 ± 0.03 µg/mL
- mean plasma protein binding (PPB) [4]: 30.70 ± 2.76%

From PMC9088703 (RSC Advances, 2018)
